Like-named read-outs stand apart in the source and are kept apart here.

Here are results for four compounds from PMC9919513, “A Practical Approach to Bicyclic Carbamoyl Pyridones with Application to the Synthesis of HIV-1 Integrase Strand Transfer Inhibitors” (Molecules, 2023).

Data set [1] deals with HIV-1 vectors that carry WT IN. The data set is described as follows: Single-round HIV-1 replication antiviral assay, wild-type IN. It counts as cell-based. Conditions: for EC50: Human immunodeficiency virus 1, HOS, 48 h, read-out: EC50, antiviral potency, WT IN, VSV-g-pseudotyped HIV-1 luciferase vector with WT IN, HOS cells, 48 h; for Ratio of the antiviral potencies after and before hydrogenation (WT): EC50 of saturated 7 over EC50 of unsaturated 6, WT IN. The procedure:
The bicyclic metal chelating carbamoyl pyridone moiety is common to second-generation tricyclic INSTIs (3, 4, and 5, Figure 1). Analogs of the current study are simplified analogs that lack a third ring. […] The halogen substitution pattern of the benzylamide moiety can affect inhibitory potencies of INSTIs. We determined the antiviral potencies of our compounds in single round HIV-1 replication assays using viral constructs with wild-type IN [31]. Cytotoxicities were determined as previously described. […] In general, the potencies of bicyclic analogs 6 having an unsaturated bond at the C4 position were insensitive to differences in N-methyl substituents. […] Analogs 6g and 6h represent simplified analogs of DTG (3) and CAB (5), respectively, in which the third ring (C-ring) is opened and having doble bond in B-ring, but lacking α-methyl stereochemistry.
Human embryonic kidney cell culture cell line 293 was acquired from the American Type Culture Collection (ATCC). The human osteosarcoma cell line, HOS, was obtained from Dr. Richard Schwartz (Michigan State University, East Lansing, MI, USA) and grown in Dulbecco’s modified Eagle’s medium (Invitrogen, Carlsbad, CA, USA) supplemented with 5% (v/v) fetal bovine serum, 5% newborn calf serum, and penicillin (50 units/mL) plus streptomycin (50 µg/mL; Quality Biological, Gaithersburg, MD, USA). The transfection vector, pNLNgoMIVR-ΔLUC was made from pNLNgoMIVR-ΔEnv.HSA by removing the HSA reporter gene and replacing it with a luciferase reporter gene between the NotI and XhoI restriction sites. To produce the new IN mutant S230N used in this study, the IN open reading frame was removed from pNLNgoMIVR-ΔENV.LUC by digestion with KpnI and SalI, and the resulting fragment was inserted between the KpnI and SalI sites of pBluescript KS+. Using that construct as the wild-type template, we prepared the following HIV-1 IN mutant S230N using the QuikChange II XL site-directed mutagenesis kit (Agilent Technologies, Santa Clara, CA, USA) protocol. The following sense oligonucleotides were used with matching cognate antisense oligonucleotides (not shown) (Integrated DNA Technologies, Coralville, IA, USA) in the mutagenesis: S230N 5′-[…]-3′. The DNA sequence of the IN mutant S230N construct was verified independently by DNA sequence determination. The mutated IN coding sequences from pBluescript KS+ were then subcloned into pNLNgoMIVR-ΔEnv.LUC (between the KpnI and SalI sites) to produce mutant HIV-1 constructs, which were also checked by DNA sequencing. […]. On the day prior to transfection, 293 cells were plated on 100 mm diameter dishes at a density of 1.5 × 10^6 cells per plate. Next, 293 cells were transfected with 16 µg of pNLNgoMIVR^-ΔLUC and 4 µg of pHCMV-g (obtained from Dr. Jane Burns, University of California, San Diego) using the calcium phosphate method. At approximately 6 h after the calcium phosphate precipitate was added, 293 cells were washed twice with phosphate-buffered saline (PBS) and incubated with fresh media for 48 h. The virus-containing supernatants were then harvested, clarified by low-speed centrifugation, filtrated, and diluted for preparation in antiviral infection assays. On the day prior to the screen, HOS cells were seeded in a 96-well luminescence cell culture plate at a density of 4000 cells in 100 µL per well. On the day of the screen for cellular cytotoxicity determination, cells were treated with compounds from a concentration range of 250 µM to 0.05 µM and then incubated at 37 °C for 48 h. On the day of the screen for antiviral activity infection assays, cells were treated with compounds from a concentration range of 5 µM to 0.0001 µM using 11 serial dilutions and then incubated at 37 °C for 3 h. After compound incorporation and activation in the cell, 100 µL of virus-stock (WT or mutant) diluted to achieve a luciferase signal between 0.2 and 1.5 Relative Luciferase Units (RLUs) was added to each well and further incubated at 37 °C for 48 h. […]

The subject of data set [2] is HIV-1 vectors bearing the S230N IN mutant. The settings on record: single round infection assays, read-out: EC50 against the S230N IN mutant; cited from earlier work.
Another data set is described as follows: in vitro. It counts as cell-based. The settings on record: human, HOS cells, 48 h; read-out: CC50, cytotoxic concentration resulting in 50% reduction in the level of ATP. The procedure:
Human embryonic kidney cell culture cell line 293 was acquired from the American Type Culture Collection (ATCC). The human osteosarcoma cell line, HOS, was obtained from Dr. Richard Schwartz (Michigan State University, East Lansing, MI, USA) and grown in Dulbecco’s modified Eagle’s medium (Invitrogen, Carlsbad, CA, USA) supplemented with 5% (v/v) fetal bovine serum, 5% newborn calf serum, and penicillin (50 units/mL) plus streptomycin (50 µg/mL; Quality Biological, Gaithersburg, MD, USA). The transfection vector, pNLNgoMIVR-ΔLUC was made from pNLNgoMIVR-ΔEnv.HSA by removing the HSA reporter gene and replacing it with a luciferase reporter gene between the NotI and XhoI restriction sites. To produce the new IN mutant S230N used in this study, the IN open reading frame was removed from pNLNgoMIVR-ΔENV.LUC by digestion with KpnI and SalI, and the resulting fragment was inserted between the KpnI and SalI sites of pBluescript KS+. Using that construct as the wild-type template, we prepared the following HIV-1 IN mutant S230N using the QuikChange II XL site-directed mutagenesis kit (Agilent Technologies, Santa Clara, CA, USA) protocol. The following sense oligonucleotides were used with matching cognate antisense oligonucleotides (not shown) (Integrated DNA Technologies, Coralville, IA, USA) in the mutagenesis: S230N 5′-[…]-3′. The DNA sequence of the IN mutant S230N construct was verified independently by DNA sequence determination. The mutated IN coding sequences from pBluescript KS+ were then subcloned into pNLNgoMIVR-ΔEnv.LUC (between the KpnI and SalI sites) to produce mutant HIV-1 constructs, which were also checked by DNA sequencing. […]. On the day prior to transfection, 293 cells were plated on 100 mm diameter dishes at a density of 1.5 × 10^6 cells per plate. Next, 293 cells were transfected with 16 µg of pNLNgoMIVR^-ΔLUC and 4 µg of pHCMV-g (obtained from Dr. Jane Burns, University of California, San Diego) using the calcium phosphate method. At approximately 6 h after the calcium phosphate precipitate was added, 293 cells were washed twice with phosphate-buffered saline (PBS) and incubated with fresh media for 48 h. The virus-containing supernatants were then harvested, clarified by low-speed centrifugation, filtrated, and diluted for preparation in antiviral infection assays. On the day prior to the screen, HOS cells were seeded in a 96-well luminescence cell culture plate at a density of 4000 cells in 100 µL per well. On the day of the screen for cellular cytotoxicity determination, cells were treated with compounds from a concentration range of 250 µM to 0.05 µM and then incubated at 37 °C for 48 h. On the day of the screen for antiviral activity infection assays, cells were treated with compounds from a concentration range of 5 µM to 0.0001 µM using 11 serial dilutions and then incubated at 37 °C for 3 h. After compound incorporation and activation in the cell, 100 µL of virus-stock (WT or mutant) diluted to achieve a luciferase signal between 0.2 and 1.5 Relative Luciferase Units (RLUs) was added to each well and further incubated at 37 °C for 48 h. Cellular cytotoxicity was measured by using the ATP Lite Luminescence detection system and monitored by adding 50 µL of cell lysis buffer from the Luminescence ATP detection assay to each well followed by mixing at 700 rpm at room temperature for 5 min using a compact thermomixer. After addition of 50 µL of reconstituted Luminescence ATP detection assay reagent to all wells except for the negative control/background wells, the plates were mixed at 700 rpm at room temperature for 5 min using a compact thermomixer, incubated at room temperature for 20 min to allow time for signal development, and finally, cytotoxicity was determined using the microplate reader. Infectivity was measured by using the Steady-lite plus luminescence reporter gene assay system (PerkinElmer, Waltham, MA, USA). […]

For data set [3], the system named is HIV-1 vectors bearing the S230N IN mutant. The data set is described as follows: Single-round HIV-1 replication antiviral assay, S230N IN mutant. The class given is cell-based. From the text:
To further evaluate the antiviral activities of select compounds, we determined their EC50 values against the IN mutant S230N, which has been selected in vitro against an early Merck INSTI L810,830, a prototype for naphthyridine analogs.
Human embryonic kidney cell culture cell line 293 was acquired from the American Type Culture Collection (ATCC). The human osteosarcoma cell line, HOS, was obtained from Dr. Richard Schwartz (Michigan State University, East Lansing, MI, USA) and grown in Dulbecco’s modified Eagle’s medium (Invitrogen, Carlsbad, CA, USA) supplemented with 5% (v/v) fetal bovine serum, 5% newborn calf serum, and penicillin (50 units/mL) plus streptomycin (50 µg/mL; Quality Biological, Gaithersburg, MD, USA). The transfection vector, pNLNgoMIVR-ΔLUC was made from pNLNgoMIVR-ΔEnv.HSA by removing the HSA reporter gene and replacing it with a luciferase reporter gene between the NotI and XhoI restriction sites. To produce the new IN mutant S230N used in this study, the IN open reading frame was removed from pNLNgoMIVR-ΔENV.LUC by digestion with KpnI and SalI, and the resulting fragment was inserted between the KpnI and SalI sites of pBluescript KS+. Using that construct as the wild-type template, we prepared the following HIV-1 IN mutant S230N using the QuikChange II XL site-directed mutagenesis kit (Agilent Technologies, Santa Clara, CA, USA) protocol. The following sense oligonucleotides were used with matching cognate antisense oligonucleotides (not shown) (Integrated DNA Technologies, Coralville, IA, USA) in the mutagenesis: S230N 5′-[…]-3′. The DNA sequence of the IN mutant S230N construct was verified independently by DNA sequence determination. The mutated IN coding sequences from pBluescript KS+ were then subcloned into pNLNgoMIVR-ΔEnv.LUC (between the KpnI and SalI sites) to produce mutant HIV-1 constructs, which were also checked by DNA sequencing. […]. On the day prior to transfection, 293 cells were plated on 100 mm diameter dishes at a density of 1.5 × 10^6 cells per plate. Next, 293 cells were transfected with 16 µg of pNLNgoMIVR^-ΔLUC and 4 µg of pHCMV-g (obtained from Dr. Jane Burns, University of California, San Diego) using the calcium phosphate method. At approximately 6 h after the calcium phosphate precipitate was added, 293 cells were washed twice with phosphate-buffered saline (PBS) and incubated with fresh media for 48 h. The virus-containing supernatants were then harvested, clarified by low-speed centrifugation, filtrated, and diluted for preparation in antiviral infection assays. On the day prior to the screen, HOS cells were seeded in a 96-well luminescence cell culture plate at a density of 4000 cells in 100 µL per well. On the day of the screen for cellular cytotoxicity determination, cells were treated with compounds from a concentration range of 250 µM to 0.05 µM and then incubated at 37 °C for 48 h. On the day of the screen for antiviral activity infection assays, cells were treated with compounds from a concentration range of 5 µM to 0.0001 µM using 11 serial dilutions and then incubated at 37 °C for 3 h. After compound incorporation and activation in the cell, 100 µL of virus-stock (WT or mutant) diluted to achieve a luciferase signal between 0.2 and 1.5 Relative Luciferase Units (RLUs) was added to each well and further incubated at 37 °C for 48 h. Cellular cytotoxicity was measured by using the ATP Lite Luminescence detection system and monitored by adding 50 µL of cell lysis buffer from the Luminescence ATP detection assay to each well followed by mixing at 700 rpm at room temperature for 5 min using a compact thermomixer. […]

Take `C[C@@H]1CCO[C@H]2Cn3cc(C(=O)NCc4ccc(F)cc4F)c(=O)c(O)c3C(=O)N12` [DTG, Dolutegravir, reference compound]: the EC50 in data set [1] was roughly 2 nM; in data set [2], 7.9 ± 1.3 nM.
`CN1CCn2cc(C(=O)NCc3ccc(F)cc3F)c(=O)c(O)c2C1=O` [Compound 7a, N-(2,4-Difluorobenzyl)-9-hydroxy-2-methyl-1,8-dioxo-1,3,4,8-tetrahydro-2H-pyrido [1,2-a]pyrazine-7-carboxamide] had a melting point of 247 to 252 °C. In data set [1], the “Ratio of the antiviral potencies after and before hydrogenation (WT)” value (“Ratio of the antiviral potencies … (WT)” for short) amounted to 1.7; the half-maximal effective concentration (EC50) worked out at 4.6 ± 0.7 nM. For the same compound, the CC50 in “in vitro” was greater than 250000 nM.
Compound `COCCCCCCN1CCn2cc(C(=O)NCc3ccc(F)cc3F)c(=O)c(O)c2C1=O` [Compound 7f, N-(2,4-Difluorobenzyl)-9-hydroxy-2-(6-methoxyhexyl)-1,8-dioxo-1,3,4,8-tetrahydro-2H-pyrido [1,2-a]pyrazine-7-carboxamide] came in with a melting point of 228 to 232 °C. Besides, in data set [1], the “Ratio of the antiviral potencies … (WT)” value was 0.96; the half-maximal effective concentration (EC50) was determined as 4.6 ± 0.4 nM. Moreover, the CC50 in “in vitro” is greater than 250000 nM.
In turn, `O=C(NCc1ccc(F)cc1F)c1cn2c(c(O)c1=O)C(=O)N(CCCCCO)CC2` [Compound 7d, N-(2,4-Difluorobenzyl)-9-hydroxy-2-(5-hydroxypentyl)-1,8-dioxo-1,3,4,8-tetrahydro-2H-pyrido [1,2-a]pyrazine-7-carboxamide] returned a melting point of 201 to 207 °C. Further, in data set [1], the “Ratio of the antiviral potencies … (WT)” value is 5.0; the EC50 amounted to 54.5 ± 3 nM. For the same compound, the “Ratio of the antiviral potencies after and before hydrogenation (S230N)” value in data set [3] (EC50 of saturated 7 over EC50 of unsaturated 6, S230N IN) is 6.29. The concentration for a half-maximal effect (EC50) in data set [3] (Human immunodeficiency virus 1, HOS, 48 h, read-out: EC50, antiviral potency, S230N IN mutant) was 97 nM.
